Data published in patent US12454559B2, “Activating mitotic checkpoint control mechanisms” (The Regents of the University of Michigan, priority 2015, dated 2025).

What was measured:
HeLa cells = experiment: Duration of mitosis / mitotic arrest by time-lapse imaging of HeLa cells expressing rapamycin-dimerizable Mps1 and KNL1 phosphodomain (eSAC); format: cell-based, human
From the text: As described elsewhere herein, a kinetochore-independent SAC activator was engineered which comprises a region of KNL1 that contains a series of Mps1 phosphorylation sites, known as “MELT repeats”, which are necessary for SAC activation, but lacks the kinetochore-localization domain at the C-terminus or the newly identified transient localization domain at its N-terminus (FIG. 21). FKBP12 was fused to this minimal KNL1 phosphodomain and FRB to Mps1, and rapamycin was used to induce dimerization of the fusion proteins in HeLa cells (FIGS. 17B, 22). […] These cells maintained an aligned metaphase plate indicating an inability to initiate anaphase and that the observed mitotic arrest was not due to the disruption of kinetochore-microtubule interactions. […] To further ensure kinetochore-independent operation of the dimerized proteins, the kinetochore-localization domain of Mps1 was removed (FIG. 17E). […] Furthermore, individually inhibiting the kinase activity of exogenous Mps1 using an analog-sensitive version of the kinase domain or preventing the phosphorylation of the minimal KNL1 phosphodomain by using a non-phosphorylatable version of the phosphodomain each prevented the rapamycin-induced mitotic arrest (FIG. 23). Thus, the catalytic activity of the Mps1 kinase domain and the Mps1 phosphorylation sites within the minimal phosphodomain are both essential for the rapamycin-induced metaphase arrest. […] The above described system of FKBP12/FRB-dimerizable Mps1 kinase domain and KNL1 phosophodomains is referred to in this example as an ectopic SAC activation system (eSAC).
MELT repeats in the eSAC phosphodomain were phosphorylated only in the presence of rapamycin, and were not phosphorylated if the SAC was activated by creating unattached kinetochores by treatment with the microtubule depolymerizing drug nocodazole (FIG. 18A). Reciprocally, the MELT repeats in endogenous KNL1 were not appreciably phosphorylated in rapamycin-treated cells, but were strongly phosphorylated in nocodazole-treated cells. […]

yeast cells = experiment: Yeast cell-cycle progression (large-budded / metaphase-arrested cells) after rapamycin-induced anchoring; format: cell-based, budding yeast
Experimental: Stock solution (1 mg ml^−1) of rapamycin in DMSO was diluted ×1,000 to achieve 1 μg ml^−1 final concentration in all experiments involving rapamycin-induced dimerization.
(§1) The ATP analogues 1-NMPP1 and 1-NAPP1 (final concentration 50 μM) were used to block the activity of mps1-as1 and ipl1-as6, respectively. Cells were first synchronized in S-phase using 100 mM hydroxyl urea (HU) for 2.5 h, washed with YPD, and then released into media containing the appropriate inhibitor for 15 min. This was followed by the addition of rapamycin to the media to anchor Mps1-Frb at Mtw1-C. The bud size was used to monitor cell-cycle progress.
Anaphase cells in cycling cultures will also be scored as large-budded cells by this criterion. In strains carrying fluorescent markers, the separation of the kinetochore clusters or spindle pole bodies was used to determine whether or not the cells arrested in mitosis. Large-budded cells with kinetochore-cluster separation smaller than 1 μm or spindle length smaller than 2 μm were scored as metaphase-arrested cells (ref. 68; herein incorporated by reference in its entirety).

ipl1-as6 = experiment: Spindle localization of Sli15-GFP in pre-anaphase cells expressing ipl1-as6; format: cell-based, budding yeast; details: 50 μM
Experimental: as §1
To study the effect of 1-NAPP1 on ipl1-as6 activity, the spindle localization of Sli15-GFP was measured in pre-anaphase cells67. The bud size was used to find pre-anaphase cells. If the bud was smaller than 50% in size as compared with the mother cell, and contained a short bar of Sli15-GFP located within the mother cell and at the bud neck, then the cell was deemed to be in pre-anaphase.

Molecule: c1nc2nc(Nc3ccc(N4CCOCC4)cc3)nc(NC3CCCCC3)c2[nH]1 [Reversine]
- Effect on rapamycin-induced mitotic arrest (time until anaphase entry) (HeLa cells; HeLa cells in rapamycin-induced arrest, KNL1 phosphodomain-Mps1 dimerization): reversed rapidly
- Effect on SAC and cell division (duration of mitosis) (HeLa cells; HeLa cells, Reversine-treated vs untreated, no rapamycin): inactivates the SAC and significantly accelerates cell division

Molecule: CC(C)(C)n1nc(Cc2cccc3ccccc23)c2c(N)ncnc21 [1NM-PP1]
- Effect on eSAC-induced arrest (HeLa cells; 10 μM with Rapamycin, analog-sensitive Mps1S602A kinase domain with minimal phosphodomain): abrogated the eSAC-induced arrest
- Effect on SAC activation by Mps1-Frb anchored at the kinetochore (yeast cells; heterozygous diploids expressing mps1-as1 and Mps1-Frb, 1-NMPP1 15 min, then rapamycin): does not affect SAC activation

Molecule: CC(C)(C)n1nc(-c2cccc3ccccc23)c2c(N)ncnc21 [1-NAPP1]
- Effect on SAC activation induced by Mps1 anchored at Mtw1-C (yeast cells; S-phase synchronized ipl1-as6 cells released into 1-NAPP1 and rapamycin): did not have any effect on SAC activation
- Inhibition of ipl1-as6 (Sli15-GFP spindle localization) (ipl1-as6): inhibits ipl1-as6

B1: Spc105120: 329: minimal, anchorable phosphodomain comprising residues 120-329 of Spc105, contains all 6 MELT motifs (protein)
chain: LVTSTQIDDARTEEKTAAEEDPDTSGMELTEPIVATSDSNKASQHDPTSMEMTEVFPRSIRQKNPDVEGESIESSQQIDDVEAVREETMELTAIHNVHDYDSISEDTVEGEPIDLTEYESKPYVPNSVSRSTGKSSDYSVERSNDKSDLSKSENKTNSSQPMEITDIFHADPQNPMGLHSDNNINDDGNEMELTQIQTNFDRDNHHIDES
modifications: left off: small tags and cut ends
notes: minimal, anchorable phosphodomain comprising residues 120-329 of Spc105, contains all 6 MELT motifs
- Cell-cycle arrest / SAC activation when anchored to Mps1 (yeast cells; anchored to Mps1-Fkbp12 with rapamycin, asynchronously dividing cells): arrested in metaphase
